Measured values: patent US8673586B2, “Compounds that interact with kinases” (Alchemia Limited, priority 2002, dated 2014)

Tests used:
PRK2 = PRK2 (Homo sapiens, UniProt Q16513); conditions: inhibitor concentration 20 μM; cited from earlier work
MSK-1 = MSK-1 (Homo sapiens, UniProt O75582); conditions: inhibitor concentration 20 μM; cited from earlier work
S6K1 = S6K1 (Homo sapiens, UniProt P23443); conditions: inhibitor concentration 20 μM; cited from earlier work
MKK1 = MKK1 (Homo sapiens, UniProt Q02750); conditions: inhibitor concentration 10 μM; cited from earlier work
CDK2 = CDK2 (Homo sapiens, UniProt P24941); conditions: inhibitor concentration 10 μM; cited from earlier work
SAPK2a = SAPK2a (Homo sapiens, UniProt Q16539); conditions: inhibitor concentration 10 μM; cited from earlier work
CK1 = conditions: inhibitor concentration 10 μM; cited from earlier work
PDGF-Ralpha = target: T1, PDGF-Ralpha (Homo sapiens, UniProt P16234); experiment: PDGF-Ralpha kinase assay, 33P-ATP incorporation, residual activity; assay type: biochemical; conditions: tested at 25 micromolar
T1 construct: made in house
Experimental: (§1) Compounds were tested in vitro as follows.
(§2) Recombinant protein kinases, which were expressed as fusion proteins in SF9 insect cells or E. coli, were used for all in vitro assays. The purity and identity of each kinase was checked by SDS-PAGE/silver staining and by western blot analysis with specific antibodies.
(§3) All kinase assays except for p38a (see below) were performed in 96-well micro-titre plates. The assay components included assay buffer, ATP, test compound, enzyme and substrate.
(§4) The assay for all enzymes (except for the PKC see below, contained 60 mM HEPES-NaOH, pH 7.5, 3 mM MgCl2, 3 mM MnCl2, 3 μM Na-orthovanadate, 1 mM […], 0.1 μM [γ-^33P]-ATP (approx. 5×10^5 cpm per well).
(§5) The reaction cocktails were incubated at 30° C. for 80 minutes. The reaction was stopped with 50 μl of 2% (v/v) H3PO4, plates were aspirated and washed twice with 200 μl of H2O or 0.9% (w/v) NaCl. Incorporation of ^33Pi was determined with a microplate scintillation counter.
(§6) All data is presented as residual activity, which is the activity of the enzyme in the presence of the stipulated concentration of inhibitor or compound. 100% activity is the maximum activity of the enzyme in the absence of any inhibitor or compound.
(§7) In all experiments the Z′ value was calculated according to Zhang et al to (J-H Zhang, T. D. Y Chung, K. R. Oldenburg (1999) Journal of Biomolecular Screening 4:67-73) using the standard deviations and mean values of the positive and negative controls. Z′=1−(3*Stdevneg+3*Stdevpos)/(Meanpos−Meanneg)
(§8) Only data where the Z′ value was >0.5 was used.

TIE2 = target: T2, TIE2 (Homo sapiens, UniProt Q02763); experiment: TIE2 kinase assay, 33P-ATP incorporation, residual activity; assay type: biochemical; conditions: tested at 25 micromolar
T2 construct: made in house
Experimental: as §1, §2, §3, §4, §5, §6, §7, §8

ABL = ABL (Homo sapiens, UniProt P00519); experiment: ABL kinase assay, 33P-ATP incorporation, residual activity; assay type: biochemical; conditions: tested at 25 micromolar
Experimental: as §1, §2, §3, §4, §5, §6, §7, §8

PKC-beta1 = PKC-beta1 (Homo sapiens, UniProt P05771); experiment: PKC-beta1 kinase assay, 33P-ATP incorporation, residual activity; assay type: biochemical; conditions: tested at 25 micromolar
Experimental: as §1, §2, §3
The assay for the PKCs contained 60 mM HEPES-NaOH, pH 7.5, 1 mM EDTA, 1.25 mM EGTA, 5 mM MgCl2, 1.32 mM CaCl2, 5 μg/ml Phosphatidylserine, 1 μg/ml 1.2 Dioleyl-glycerol, 1.2 mM DTT, 50 μg/ml PEG20000, 0.1 μM [γ-^33P]-ATP (approx. 5×10^5 cpm per well).
as §5, §6, §7, §8

VEGF-R2 = target: T3, VEGF-R2 (Homo sapiens, UniProt P35968); experiment: VEGF-R2 kinase assay, 33P-ATP incorporation, residual activity; assay type: biochemical; parameters: key: % residual kinase activity (100% = no inhibitor); conditions: tested at 25 micromolar
T3 construct: made in house
Experimental: as §1, §2, §3, §4, §5, §6, §7, §8

EGF-R = EGF-R (Homo sapiens, UniProt P00533); experiment: EGF-R kinase assay, 33P-ATP incorporation, residual activity; assay type: biochemical; conditions: tested at 25 micromolar
Experimental: as §1, §2, §3, §4, §5, §6, §7, §8

KIT = target: T4, KIT (Homo sapiens, UniProt P10721); experiment: KIT kinase assay, 33P-ATP incorporation, residual activity; assay type: biochemical; conditions: tested at 25 micromolar
T4 construct: made in house
Experimental: as §1, §2, §3, §4, §5, §6, §7, §8

CDK2/CycA = CDK2/CycA (Homo sapiens, UniProt P24941); experiment: CDK2/CycA kinase assay, 33P-ATP incorporation, residual activity; assay type: biochemical; conditions: tested at 25 micromolar
Experimental: as §1, §2, §3, §4, §5, §6, §7, §8

MET = target: T5, MET (Homo sapiens, UniProt P08581); experiment: MET kinase assay, 33P-ATP incorporation, residual activity; assay type: biochemical; parameters: key: % residual kinase activity (100% = no inhibitor); conditions: tested at 25 micromolar
T5 construct: made in house
Experimental: as §1, §2, §3, §4, §5, §6, §7, §8

T5 sequence (P08581 25-1390): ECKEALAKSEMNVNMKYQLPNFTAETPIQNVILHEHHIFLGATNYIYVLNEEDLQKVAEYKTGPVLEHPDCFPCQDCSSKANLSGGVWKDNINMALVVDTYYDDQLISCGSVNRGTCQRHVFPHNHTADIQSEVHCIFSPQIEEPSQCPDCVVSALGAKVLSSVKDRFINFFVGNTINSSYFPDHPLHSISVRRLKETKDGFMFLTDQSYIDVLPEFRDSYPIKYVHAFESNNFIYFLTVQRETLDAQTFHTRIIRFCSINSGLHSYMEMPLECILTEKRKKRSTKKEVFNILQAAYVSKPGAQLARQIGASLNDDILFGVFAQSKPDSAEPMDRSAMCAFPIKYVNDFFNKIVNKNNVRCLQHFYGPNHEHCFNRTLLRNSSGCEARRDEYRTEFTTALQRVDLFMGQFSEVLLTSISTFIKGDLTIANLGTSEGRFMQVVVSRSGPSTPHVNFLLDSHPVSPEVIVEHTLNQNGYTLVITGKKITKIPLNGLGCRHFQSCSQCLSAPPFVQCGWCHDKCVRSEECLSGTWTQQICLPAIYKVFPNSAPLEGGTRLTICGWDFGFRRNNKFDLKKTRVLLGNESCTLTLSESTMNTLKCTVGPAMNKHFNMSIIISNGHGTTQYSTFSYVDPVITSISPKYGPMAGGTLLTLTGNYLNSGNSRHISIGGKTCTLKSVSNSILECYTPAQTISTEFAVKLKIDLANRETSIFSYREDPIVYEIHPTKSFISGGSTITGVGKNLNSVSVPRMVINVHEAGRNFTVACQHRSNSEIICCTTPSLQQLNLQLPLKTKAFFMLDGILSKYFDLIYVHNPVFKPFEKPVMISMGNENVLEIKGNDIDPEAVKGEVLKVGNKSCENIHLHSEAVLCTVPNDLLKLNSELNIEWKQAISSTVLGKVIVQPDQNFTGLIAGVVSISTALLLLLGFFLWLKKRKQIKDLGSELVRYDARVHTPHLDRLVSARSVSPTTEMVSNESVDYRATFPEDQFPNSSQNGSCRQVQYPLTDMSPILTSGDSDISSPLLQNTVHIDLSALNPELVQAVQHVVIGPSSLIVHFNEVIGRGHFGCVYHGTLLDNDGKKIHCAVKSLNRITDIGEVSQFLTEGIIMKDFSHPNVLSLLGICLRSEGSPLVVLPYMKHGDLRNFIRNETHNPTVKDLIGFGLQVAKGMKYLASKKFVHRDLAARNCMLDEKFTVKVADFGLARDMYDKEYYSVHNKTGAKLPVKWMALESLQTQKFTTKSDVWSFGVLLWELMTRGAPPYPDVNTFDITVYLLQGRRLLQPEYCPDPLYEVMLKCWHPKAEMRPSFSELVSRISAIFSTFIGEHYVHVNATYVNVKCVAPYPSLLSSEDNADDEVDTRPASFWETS
Sequence of PKC-beta1 (P05771 whole entry): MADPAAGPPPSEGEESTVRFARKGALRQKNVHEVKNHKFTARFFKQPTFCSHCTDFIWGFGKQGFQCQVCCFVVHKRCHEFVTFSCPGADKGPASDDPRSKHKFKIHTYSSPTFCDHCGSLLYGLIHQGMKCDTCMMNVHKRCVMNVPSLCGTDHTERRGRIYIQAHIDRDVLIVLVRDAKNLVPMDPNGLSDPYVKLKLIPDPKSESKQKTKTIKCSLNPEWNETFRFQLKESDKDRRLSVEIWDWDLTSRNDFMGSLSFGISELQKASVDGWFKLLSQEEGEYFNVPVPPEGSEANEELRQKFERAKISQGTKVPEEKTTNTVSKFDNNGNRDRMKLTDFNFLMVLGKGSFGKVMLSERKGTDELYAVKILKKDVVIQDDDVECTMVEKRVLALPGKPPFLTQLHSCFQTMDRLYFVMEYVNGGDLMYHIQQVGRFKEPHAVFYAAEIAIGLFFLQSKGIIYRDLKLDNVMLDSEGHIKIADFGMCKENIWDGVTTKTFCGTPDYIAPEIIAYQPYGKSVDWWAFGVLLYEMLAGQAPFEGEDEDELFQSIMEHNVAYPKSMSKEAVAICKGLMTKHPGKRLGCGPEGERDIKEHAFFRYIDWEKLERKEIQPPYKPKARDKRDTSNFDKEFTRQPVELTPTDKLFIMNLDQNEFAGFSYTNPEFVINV
T4 sequence (P10721 26-976, species assumed): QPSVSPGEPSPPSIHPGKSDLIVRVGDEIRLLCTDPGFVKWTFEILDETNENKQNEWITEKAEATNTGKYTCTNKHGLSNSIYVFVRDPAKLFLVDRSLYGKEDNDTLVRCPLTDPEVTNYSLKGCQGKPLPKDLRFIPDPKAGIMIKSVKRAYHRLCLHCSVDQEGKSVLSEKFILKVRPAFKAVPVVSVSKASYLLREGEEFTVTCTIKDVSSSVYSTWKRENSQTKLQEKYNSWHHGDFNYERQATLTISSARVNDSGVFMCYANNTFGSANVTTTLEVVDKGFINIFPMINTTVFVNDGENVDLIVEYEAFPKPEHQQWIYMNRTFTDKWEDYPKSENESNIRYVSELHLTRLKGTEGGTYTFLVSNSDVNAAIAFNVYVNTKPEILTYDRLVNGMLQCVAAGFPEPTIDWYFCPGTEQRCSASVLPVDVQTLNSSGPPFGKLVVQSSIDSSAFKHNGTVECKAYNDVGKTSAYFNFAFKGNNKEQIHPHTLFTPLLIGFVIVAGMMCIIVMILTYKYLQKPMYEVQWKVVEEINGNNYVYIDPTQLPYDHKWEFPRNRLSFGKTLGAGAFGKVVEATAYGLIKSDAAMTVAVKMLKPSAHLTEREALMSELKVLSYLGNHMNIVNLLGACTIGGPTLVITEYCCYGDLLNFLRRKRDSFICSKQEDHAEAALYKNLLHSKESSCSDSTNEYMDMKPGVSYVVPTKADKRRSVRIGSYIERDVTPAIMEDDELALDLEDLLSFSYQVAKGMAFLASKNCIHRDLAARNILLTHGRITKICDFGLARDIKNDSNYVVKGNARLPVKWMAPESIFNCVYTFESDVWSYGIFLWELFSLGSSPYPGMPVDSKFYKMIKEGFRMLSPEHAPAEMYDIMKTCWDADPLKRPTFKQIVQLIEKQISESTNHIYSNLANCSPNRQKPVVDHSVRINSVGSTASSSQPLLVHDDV
T1 sequence (P16234 24-1089, species assumed): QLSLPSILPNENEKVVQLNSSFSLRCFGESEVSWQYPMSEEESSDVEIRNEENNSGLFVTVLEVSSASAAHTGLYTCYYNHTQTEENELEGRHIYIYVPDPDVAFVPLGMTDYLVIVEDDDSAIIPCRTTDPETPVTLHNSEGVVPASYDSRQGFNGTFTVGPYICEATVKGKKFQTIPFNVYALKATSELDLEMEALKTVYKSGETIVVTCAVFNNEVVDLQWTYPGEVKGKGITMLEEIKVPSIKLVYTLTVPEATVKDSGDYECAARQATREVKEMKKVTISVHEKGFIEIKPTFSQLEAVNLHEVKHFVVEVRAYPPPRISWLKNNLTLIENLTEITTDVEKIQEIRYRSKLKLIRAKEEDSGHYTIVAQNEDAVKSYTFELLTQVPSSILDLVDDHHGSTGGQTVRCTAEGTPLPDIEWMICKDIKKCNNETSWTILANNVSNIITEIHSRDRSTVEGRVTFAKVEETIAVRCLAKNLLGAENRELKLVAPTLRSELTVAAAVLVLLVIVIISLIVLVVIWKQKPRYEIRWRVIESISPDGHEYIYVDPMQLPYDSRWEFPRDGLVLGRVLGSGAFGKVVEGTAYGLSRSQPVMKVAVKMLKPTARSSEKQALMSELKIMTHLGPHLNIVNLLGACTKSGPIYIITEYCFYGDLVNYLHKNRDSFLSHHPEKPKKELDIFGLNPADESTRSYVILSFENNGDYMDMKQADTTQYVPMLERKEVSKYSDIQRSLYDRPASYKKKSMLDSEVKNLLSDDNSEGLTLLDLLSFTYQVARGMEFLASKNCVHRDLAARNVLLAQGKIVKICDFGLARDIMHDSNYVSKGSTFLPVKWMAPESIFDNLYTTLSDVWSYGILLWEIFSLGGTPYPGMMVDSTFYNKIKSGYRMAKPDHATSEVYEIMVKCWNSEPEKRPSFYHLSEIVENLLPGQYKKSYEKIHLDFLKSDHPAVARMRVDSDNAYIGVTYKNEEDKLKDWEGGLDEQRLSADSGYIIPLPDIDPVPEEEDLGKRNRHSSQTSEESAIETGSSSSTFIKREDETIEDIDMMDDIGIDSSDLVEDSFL
Sequence of SAPK2a (Q16539 whole entry, species assumed): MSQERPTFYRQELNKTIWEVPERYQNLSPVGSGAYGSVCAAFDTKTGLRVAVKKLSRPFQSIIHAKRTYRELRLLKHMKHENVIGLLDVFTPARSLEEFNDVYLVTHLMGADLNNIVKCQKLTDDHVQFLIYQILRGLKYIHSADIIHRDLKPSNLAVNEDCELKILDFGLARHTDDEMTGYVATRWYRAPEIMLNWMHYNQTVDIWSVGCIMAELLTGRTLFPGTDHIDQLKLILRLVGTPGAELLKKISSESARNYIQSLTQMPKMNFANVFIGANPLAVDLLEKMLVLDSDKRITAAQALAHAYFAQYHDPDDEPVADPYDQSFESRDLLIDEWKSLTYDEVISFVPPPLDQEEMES
Sequence of MKK1 (Q02750 whole entry, species assumed): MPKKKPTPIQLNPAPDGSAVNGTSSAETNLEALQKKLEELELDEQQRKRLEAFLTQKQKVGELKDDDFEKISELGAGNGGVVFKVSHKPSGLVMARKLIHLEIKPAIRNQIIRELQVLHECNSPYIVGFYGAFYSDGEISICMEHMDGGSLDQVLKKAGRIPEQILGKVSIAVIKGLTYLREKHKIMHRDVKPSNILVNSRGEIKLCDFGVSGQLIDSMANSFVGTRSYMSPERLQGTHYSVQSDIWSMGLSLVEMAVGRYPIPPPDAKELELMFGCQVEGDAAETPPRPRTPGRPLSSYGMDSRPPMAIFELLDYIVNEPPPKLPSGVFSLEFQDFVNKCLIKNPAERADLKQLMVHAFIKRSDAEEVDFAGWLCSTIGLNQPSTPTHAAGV

Structure (SMILES) | residual activity PRK2 (PRK2) | residual activity MSK1 (MSK-1) | residual activity S6K1 (S6K1) | residual activity MKK1 (MKK1) | residual activity CDK2 (CDK2) | residual activity SAPK2a (SAPK2a) | residual activity CK1 (CK1) | PDGFalpha (PDGF-Ralpha) | Tie2 (TIE2) | ABL (ABL) | PKC (PKC-beta1) | VEGF (VEGF-R2) | EGF-R (EGF-R) | c-Kit (KIT) | CDK2 (CDK2/CycA) | MET (MET)
O=S(=O)(c1cccc2cnccc12)N1CCCNCC1 [HA1077] | 15% | 19% | 32% | – | – | – | – | – | – | – | – | – | – | – | – | –
CC(C)(C)n1nc(-c2ccc(Cl)cc2)c2c(N)ncnc21 [PP2] | – | – | – | 55% | 3% | 21% | 6% | – | – | – | – | – | – | – | – | –
Cc1cccc(CSc2nc3cc(C(N)=O)ccc3n2C[C@H]2O[C@@H](n3cnc4c(N)ncnc43)[C@H](O)[C@@H]2O)c1 [compound 100] | – | – | – | – | – | – | – | 106 | 42 | 109 | 80 | 58 | 69 | 52 | 70 | 88
CCCCCCCCSc1nc2cc(C(N)=O)ccc2n1C[C@H]1O[C@@H](n2nnc(C(N)=O)c2-c2ccccc2)[C@H](O)[C@@H]1O [compound 146] | – | – | – | – | – | – | – | 127 | 71 | 115 | 142 | 101 | 94 | 53 | 270 | 78
Nc1ncnc2c1ncn2[C@@H]1O[C@H](CN2C(=O)C(Cc3ccccc3)N(Cc3ccccc3[N+](=O)[O-])C2=O)[C@@H](O)[C@H]1O (stereo partly shown) [compound 212] | – | – | – | – | – | – | – | 38 | 1 | 41 | 26 | 10 | 23 | 12 | 25 | 46
Nc1ncnc2c1ncn2[C@@H]1O[C@H](CN2C(=O)C(Cc3ccccc3)N(Cc3cccn3S(=O)(=O)c3ccccc3)C2=O)[C@@H](O)[C@H]1O (stereo partly shown) [compound 223] | – | – | – | – | – | – | – | 17 | 0 | 24 | 10 | 11 | 22 | 109 | 40 | 31
CCn1c2ccccc2c2ccc(CN3C(=O)N(C[C@H]4O[C@@H](n5nnc(C(N)=O)c5-c5ccccc5)[C@H](O)[C@@H]4O)C(=O)C3Cc3ccccc3)cc21 (stereo partly shown) [compound 246] | – | – | – | – | – | – | – | 28 | −1 | 30 | 13 | 8 | 15 | 6 | 26 | 27
CCCCCCCCOc1ccc(-c2nc3cc(C(N)=O)ccc3n2C[C@H]2O[C@@H](n3nnc(C(N)=O)c3-c3ccccc3)[C@H](O)[C@@H]2O)cc1 [compound 279] | – | – | – | – | – | – | – | 85 | 12 | 6 | 80 | 31 | 66 | 17 | 20 | 72
CCCc1c(C(N)=O)nnn1[C@@H]1O[C@H](CNCc2nc3cc(C(N)=O)ccc3n2-c2ccc(-c3ccccc3)cc2)[C@@H](O)[C@H]1O [compound 345] | – | – | – | – | – | – | – | 82 | 41 | 74 | 65 | 54 | 58 | 40 | 67 | 87
